Blank lines part the entries; values can stand above or below the compound they belong to.
Tests used:
[1] = test system: SUM159, ClpP CRISPR KO; assay: Growth of SUM159 versus SUM159 ClpP CRISPR KO cells (FIG. 6); conditions: SUM159 ClpP CRISPR KO compared to SUM159
[2] = test system: ClpX and TUFM; assay: ClpX and TUFM Western blots in SUM159 cells (FIG. 5); conditions: concentration response and time course
[3] = target: T1, hClpP (Homo sapiens, UniProt Q16740); assay: hClpP binding to immobilized compound Sepharose beads, Western blot
T1 construct: endogenous in cells; host or cells: HeLa cell lysate

[4] = target: recombinant human caseinolytic peptidase hClpP (Homo sapiens, UniProt Q16740); assay: hClpP peptide hydrolysis assay (Ac-WLA-AMC); conditions: Protocol 2, purified hClpP, Ac-WLA-AMC
Description: Briefly, the activity of recombinant hClpP proteolytic subunit (1 μg/mL) was measured in the assay buffer composed of 50 mM Tris, 10 mM MgCl2, 100 mM KCl, 1 mM DTT, 4 mM ATP, 0.02% Triton X-100 and 5% Glycerol, pH 8.0 (HCl) using 10 µM of fluorogenic Ac-WLA-AMC substrate as described in references above. […] Using the first protocol (Protocol 1), the reaction was initiated by immediately mixing enzyme and substrate in the presence of indicated doses of compounds. Applying a second protocol (Protocol 2), the enzyme and compounds were mixed and incubated in assay buffer for 60 min before initiating the reaction by adding Ac-WLA-ACM substrate.
Enzymatic activity of hClpP was measured in assay buffer (as described in Experimental Procedure/Materials and Methods) and the level of fluorescence of liberated coumarin monitored continuously.

[5] = test system: HCT116 (human colon cancer); assay: Cancer cell viability, CCK-8, HCT116; assay type: cell-based; conditions: Homo sapiens, HCT-116, 48 h, HCT116, 48 hours, CCK-8; read-out: EC50 (uM, HCT116)
Description: (§1) Cancer cell lines. […] The plate is incubated for 48 hours.
(§2) CCK-8 solution is added directly to the cells.

[6] = test system: ALAS1 (SEQ ID NO. 2); assay: ALAS1 Western blotting time courses (FIG. 15-17); conditions: Ex. 85 at 50 nM; 30 minute, sustained over 24 hrs
[7] = test system: MDA-MB-231 (MDA 231, human breast adenocarcinoma); assay: Cancer cell viability, CCK-8, MDA-MB-231; assay type: cell-based; conditions: Homo sapiens, MDA-MB-231; MDA 231, 48 hours, CCK-8; read-out: EC50 (uM, MDA 231)
Description: as §1, §2

[8] = test system: SUM159 triple negative breast cancer cells; assay: Immunoblot of mitochondrial proteins, SUM159 (FIG. 12); assay type: cell-based; conditions: SUM159, 100 nM, 3-48 hrs
Description: (§3) Immunoblot of SUM159 or MDA-MB-231 cells following 0.1% DMSO (48 hrs) or 100 nM Ex. 65 for indicated timepoints (3-48 hrs) for indicated proteins.

[9] = test system: Capan-2 (human pancreatic adenocarcinoma); assay: Cell viability CCK8, 72 hours, Capan-2; assay type: cell-based; conditions: 72 hours of drug incubation
Description: (§4) For cancer cell lines, AN3CA (human uterine/endometrial cancer, Van Nyen, T. et al Int. J. Mol. Sci. 2018, 19, 2348 and referenced cited therein) cell line and Capan-2 (human pancreatic adenocarcinoma) cell line additional details for testing are as follows. Using 96 well cell culture plate (Corning Costar, Cat #3599), after addition of the test compound (Example 65, or other) the plate is incubated at 37° C., 5% CO2 for 72 hours. Cell viability was determined using CCK8 assay by adding […] of CCK8 into the assay well, incubate the plate for 2 hours and record […] using a SpectraMax i3X reader. Other 72 hour incubation studies can also using these details in addition to other experimental details described herein.
(§5) Example 65 was examined in AN3CA (human uterine cancer) and Capan-2 (human pancreatic adenocarcinoma) cancer cell lines.

[10] = test system: AN3CA (human uterine cancer); assay: Cell viability CCK8, 72 hours, AN3CA; assay type: cell-based; conditions: AN3-CA, 72 hours of drug incubation
Description: as §4, §5

[11] = test system: MDA-MB-231 triple negative breast cancer cells; assay: Immunoblot of mitochondrial proteins, MDA-MB-231 (FIG. 12); assay type: cell-based; conditions: MDA-MB-231, 100 nM, 3-48 hrs
Description: as §3

recombinant human caseinolytic peptidase hClpP, sequence (Q16740 57-277): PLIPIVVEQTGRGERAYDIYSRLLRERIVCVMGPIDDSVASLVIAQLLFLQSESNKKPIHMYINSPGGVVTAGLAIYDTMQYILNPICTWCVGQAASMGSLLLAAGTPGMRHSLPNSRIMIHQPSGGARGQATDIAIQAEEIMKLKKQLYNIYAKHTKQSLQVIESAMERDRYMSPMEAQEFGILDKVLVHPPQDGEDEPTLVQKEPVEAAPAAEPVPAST
T1 sequence (Q16740 57-277): as above

SMILES: Cn1c2c(c(=O)n(Cc3ccc(Cl)cc3)c1=O)CN(Cc1cccc(C#N)c1)CC2 [TR57]
- Effect on growth of ClpP CRISPR knockout cells [1]: resistant
- ClpX and TUFM protein level [2]: reduction of the protein ClpX and TUFM

- hClpP binding to compound coupled to Sepharose beads [3]: directly binds
- EC50 [5]: 0.057 µM
SMILES: N#Cc1cccc(CN2CCc3c(c(=O)n(Cc4ccc(C(F)(F)F)cc4)c(=O)n3CCCN)C2)c1 [Ex. 57, 3-((1-(3-aminopropyl)-2,4-dioxo-3-(4-(trifluoromethyl)benzyl)-1,2,3,4,7,8-hexahydropyrido[4,3-d]pyrimidin-6 (5H)-yl)methyl)benzonitrile]
- Dose-dependency of hClpP activation [4]: dose-dependent increases in hClpP activity

- EC50 [7]: 0.003 µM
- EC50 [5]: 0.008 µM
SMILES: N#Cc1cccc(CN2CCc3cnn(Cc4ccc(Cl)cc4)c(=O)c3C2)c1 [Example 85, 3-((3-(4-chlorobenzyl)-4-oxo-3,5,7,8-tetrahydropyrido[3,4-d]pyridazin-6 (4H)-yl)methyl)benzonitrile]
- ALAS1 protein level (FIG. 16) [6]: rapidly degraded

- IC50 [9]: < 50 nM
- IC50 [10]: 1 nM
- EC50 [5]: 0.021 µM
SMILES: N#Cc1cccc(CN2CCc3ncn(Cc4ccc(Cl)cc4)c(=O)c3C2)c1 [Example 65]
- Mitochondrial protein degradation [8]: induces degradation of mitochondrial proteins in a time dependent manner
- Dose-dependency of hClpP activation [4]: Dose-dependent increases in hClpP activity
- Mitochondrial protein degradation [11]: induces degradation of mitochondrial proteins in a time dependent manner

Reference: patent US12692267B2 (Madera Therapeutics, LLC, priority 2019, dated 2026)
